Results from patent US20210122780A1, “COMPOSITIONS FOR THE PREVENTION AND TREATMENT OF PARKINSON'S DISEASE” (Metselex, Inc., priority 2018, published 2021).

How the values were obtained:
[1] = Stability in tris glycine buffer before AP addition (31P NMR); assay type: physicochemical; settings: 0.100 M tris glycine buffer, 1.0 mM ZnCl2, 1.0 mM MgCl2, 1 h
Experimental: Compound 19d (10.0 mg, 0.016 mmol) or compound 3 (8.7 mg, 0.016 mmol) were dissolved in 0.6 mL of a 0.100 M tris glycine buffer solution containing 1.0 mM ZnCl2 and 1.0 mM MgCl2. […] 50 μL of the previously prepared AP stock solution was further diluted by addition to 0.950 mL of a 0.100 M tris glycine buffer containing 1.0 mM ZnCl2 and 1.0 mM MgCl2. 10.0 μL of this diluted AP solution was added to the prodrug solution by syringe. A series of 42 inverse-gated decoupled ^31P NMR's were taken (24 scans each, approximately one minute acquisition time). Conversion (%) was determined from the relative integration of the starting material and product peaks, NMR time stamps were used to determine time. Each experiment was repeated three times.

[2] = assay type: physicochemical; settings: for percent starting material remaining: after one week at rt in D2O solution
Experimental: Measurement of chemical stability of phosphorylated compounds. 4.0 mg of prodrug (19b, 19c, or 19d) were dissolved in 1.0 mL D2O. A sealed capillary tube containing phenylphosphonic acid dissolved in D2O was added as a standard. At time=0, a ^1H NMR spectrum was obtained and the proton signal at […]5.51 was integrated (It=0) relative to the aromatic signals from phenylphosphonic acid. After 7 days at rt, a new NMR spectrum was taken and the proton signal at δ 5.51 was integrated again (It=7). The percent starting material remaining was It=7/It=0×100. Each experiment was repeated three times. Chemical stability results obtained either by measuring the disappearance of starting material relative to the internal standard by ^31P NMR or by using inverse-gated decoupled phosphorus NMR and integrating starting material and product were very similar to the numbers obtained using ^1H NMR. For 19e, 4.0 mg 19b was dissolved in D2O and an additional equivalent of Tris added (the stoichiometry was confirmed by ^1H NMR) and the experiment conducted as above.

[3] = Aqueous solubility of prodrug salts; settings: water
SH-SY5Y cells = assay: MTT cell viability, SNP-induced cytotoxicity; settings: inhibitor 1 h, UDCA 200 μM 1 h, SNP 1 mM 24 h
Experimental: Human dopaminergic neuronal cell line, SH-SY5Y, was cultured in DMEM/F12 medium supplemented with 10% FBS (v/v), penicillin (100 U/m)-streptomycin (100 μg/ml) in 5% CO2 at 37° C. […] Usually, the culture medium was changed to DMEM/F12 medium with 0.5% FBS before any treatment to reduce the serum effect. In order to prevent the direct interaction between the treated chemicals, the culture medium was changed to fresh low-serum medium at the ent of pretreatment. UDCA was dissolved in ethanol as a 100× stock solution and diluted to the desired final concentrations. To estimate cell viability, 3-(4,5-dimetnylthiazol-2-yl)-2,5-diphenyltetrazolium bromide (MTT) reduction assay was performed. After cells were treated ad culture medium was removed, MTT solution (50 μg, 1 mg/ml in phosphate buffered saline, PBS) was added to each well in 96-well plate and incubated for 4 h at 37° C. The medium was carefully removed, 100 μl DMSO added to each well, and the plate agitated on an orbital shaker for 15 min to dissolve the formazan. The absorbance was measured at 540 nm using a microplate reader (SepctraMax M2, Molecular Devices).

mitochondrial membrane = assay: Bax-induced alterations of mitochondrial membrane (FIG. 1, 2)

With `C[C@H](CCC(=O)[O-])[C@H]1CC[C@H]2[C@@H]3[C@@H](O)C[C@@H]4C[C@H](OP(=O)([O-])O)CC[C@]4(C)[C@H]3CC[C@]12C.[Na+].[Na+]` [Compound 3, 3-(Phosphonatooxy)-ursodeoxycholic acid sodium salt] the “decomposition by 31P NMR in buffer” value [1] was “Neither compound showed decomposition”.
For `C[C@H](CCC(=O)[O-])[C@H]1CC[C@H]2[C@@H]3[C@@H](OCOP(=O)(O)O)C[C@@H]4C[C@H](O)CC[C@]4(C)[C@H]3CC[C@]12C.C[C@H](CCC(=O)[O-])[C@H]1CC[C@H]2[C@@H]3[C@@H](OCOP(=O)(O)O)C[C@@H]4C[C@H](O)CC[C@]4(C)[C@H]3CC[C@]12C.[Na+].[Na+]` [Compound 13b, 7-(Phosphonooxymethoxy)-ursodeoxycholic acid sodium salt], the “stability in D2O solution overnight” value ([2]; D2O, overnight) was “a significant portion of the material decomposed” and the “aqueous solubility, rapidly dissolving at all concentrations tested” value [3] was ≥ 10 mg/mL.
In the case of `CC(CCC(=O)OCOP(=O)(O)O)C1CCC2C3C(O)CC4CC(O)CCC4(C)C3CCC12C` (stereo not shown) [Compound 19b, ursodeoxycholic acid phosphonooxymethoxy ester], the “percent starting material remaining” value [2] is reported as 36%, the “stability on cold storage” value ([2]; stored in a freezer / cold) is reported as “stable for extended periods of time when stored in a freezer” and the “aqueous solubility, rapidly dissolving at all concentrations tested” value [3] is reported as ≥ 20 mg/mL.
In the case of `CC(CCC(=O)OCOP(=O)(O)O)C1CCC2C3C(O)CC4CC(O)CCC4(C)C3CCC12C` (stereo not shown) [Compound 19c, ursodeoxycholic acid phosphonooxymethoxy ester], the “percent starting material remaining” value [2] is reported as 34%.
For `O=c1cc(N2CCOCC2)oc2c(-c3ccccc3)cccc12` [LY294002], the “impact on UDCA-mediated protection against SNP-induced cytotoxicity” value (SH-SY5Y cells) was “reversed”.
With `C[C@H](CCC(=O)NCCS(=O)(=O)O)[C@H]1CC[C@H]2[C@@H]3[C@@H](O)C[C@@H]4C[C@H](O)CC[C@]4(C)[C@H]3CC[C@]12C` [TUDCA, tauroursodeoxycholic acid] the “Bax-induced alterations in mitochondrial membrane polarity” value (mitochondrial membrane; FIG. 1) was “prevents” and the “Bax-induced alterations in mitochondrial membrane protein order” value (mitochondrial membrane; FIG. 2) was “prevents”.
